According to PubChem BioAssay (NCI):
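Where inhibition never reached the appropriate level, the endpoint shown equals the highest concentration tested. Otherwise, values were interpolated linearly from a five-concentration, 48-hour dose response in 96-well plates. TGI denotes the concentration required for complete inhibition of growth.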

Columns and labels:
Test in all cases: inhibition of tumour cell growth, NCI panel, 48 h
UACC-257 melanoma = system: UACC-257 melanoma
HS 578T breast = system: HS 578T breast
SF-295 CNS = system: SF-295 CNS
A498 renal = system: A498 renal
OVCAR-8 ovarian = system: OVCAR-8 ovarian
SK-OV-3 ovarian = system: SK-OV-3 ovarian
UO-31 renal = system: UO-31 renal
M14 melanoma = system: M14 melanoma
HOP-62 NSCLC = system: HOP-62 NSCLC
SNB-19 CNS = system: SNB-19 CNS
HCC-2998 colon = system: HCC-2998 colon
NCI-H23 lung = system: NCI-H23 lung
PC-3 prostate = system: PC-3 prostate
SN12C renal = system: SN12C renal
NCI-H226 lung = system: NCI-H226 lung
786-0 renal = system: 786-0 renal
SK-MEL-5 melanoma = system: SK-MEL-5 melanoma
NCI-H522 lung = system: NCI-H522 lung
SNB-75 CNS = system: SNB-75 CNS
MDA-N = system: MDA-N
U251 CNS = system: U251 CNS
SW-620 colon = system: SW-620 colon
HT29 colon = system: HT29 colon
SK-MEL-28 melanoma = system: SK-MEL-28 melanoma
BT-549 breast = system: BT-549 breast
A549 NSCLC = system: A549 NSCLC
MALME-3M melanoma = system: MALME-3M melanoma
NCI-H460 lung = system: NCI-H460 lung
CAKI-1 renal = system: CAKI-1 renal
SF-539 CNS = system: SF-539 CNS
HCT-116 colon = system: HCT-116 colon
OVCAR-5 ovarian = system: OVCAR-5 ovarian
TK-10 renal = system: TK-10 renal
K-562 leukemia = system: K-562 leukemia
SF-268 CNS = system: SF-268 CNS
MDA-MB-435 = system: MDA-MB-435
MOLT-4 leukemia = system: MOLT-4 leukemia
KM12 colon = system: KM12 colon
OVCAR-3 ovarian = system: OVCAR-3 ovarian
MCF7 breast = system: MCF7 breast
HCT-15 colon = system: HCT-15 colon
LOX IMVI melanoma = system: LOX IMVI melanoma
DU-145 prostate = system: DU-145 prostate
SK-MEL-2 melanoma = system: SK-MEL-2 melanoma
T-47D breast = system: T-47D breast
RPMI-8226 leukemia = system: RPMI-8226 leukemia
MDA-MB-231 breast = system: MDA-MB-231 breast
NCI/ADR-RES ovarian = system: NCI/ADR-RES ovarian
ACHN renal = system: ACHN renal
OVCAR-4 ovarian = system: OVCAR-4 ovarian
UACC-62 melanoma = system: UACC-62 melanoma
HOP-92 NSCLC = system: HOP-92 NSCLC
IGROV1 ovarian = system: IGROV1 ovarian
EKVX NSCLC = system: EKVX NSCLC
SR leukemia = system: SR leukemia
COLO 205 colon = system: COLO 205 colon

Measured: TGI

Cc1oc2c(c1C)S(=O)(=O)C(C#N)=CN2
> 100 µM: all assays above
